ChEMBL document CHEMBL5331108, “Design and Synthesis of 4-Fluorophenyl-5-methylene-2(5H)-furanone Derivatives as Potent Quorum Sensing Inhibitors” (J Med Chem, 2023)
Values after ≈ are worked out from the molar mass of the structure shown.

Columns and labels:
Assay type in all cases: functional
Bacillus subtilis = assay: Antibacterial activity against penicillin-susceptible Bacillus subtilis ATCC9372 assessed as inhibition of bacterial growth incubated for 20 hrs by CLSI protocol based microdilution method
Bacillus pumilus = assay: Antibacterial activity against penicillin-susceptible Bacillus pumilus CMCC63202 assessed as inhibition of bacterial growth incubated for 20 hrs by CLSI protocol based microdilution method
Staphylococcus aureus [1] = assay: Antibacterial activity against erthromycin-susceptible Staphylococcus aureus ATCC25923 assessed as inhibition of bacterial growth incubated for 20 hrs by CLSI protocol based microdilution method
Staphylococcus aureus [2] = assay: Antibacterial activity against methicillin-resistant Staphylococcus aureus ATCC43300 assessed as inhibition of bacterial growth incubated for 20 hrs by CLSI protocol based microdilution method
Pseudomonas aeruginosa [3] = assay: Antibacterial activity against penicillin-susceptible Pseudomonas aeruginosa ATCC27853 assessed as inhibition of bacterial growth incubated for 20 hrs by CLSI protocol based microdilution method
Escherichia coli = assay: Antibacterial activity against penicillin-susceptible Escherichia coli ATCC25922 assessed as inhibition of bacterial growth incubated for 20 hrs by CLSI protocol based microdilution method
Pseudomonas aeruginosa [4] = assay: Antibacterial activity against wild type Pseudomonas aeruginosa […] CGMCC1.12483 assessed as inhibition of bacterial growth incubated for 20 hrs by CLSI protocol based microdilution method

C=C1OC(=O)C(CNC(=O)CCCCCCC)=C1c1ccc(F)cc1
MIC (Bacillus subtilis): > 512 µg/mL
MIC (Bacillus pumilus): > 512 µg/mL
MIC (Staphylococcus aureus [1]): > 512 µg/mL
MIC (Staphylococcus aureus [2]): > 512 µg/mL
MIC (Pseudomonas aeruginosa [3]): > 512 µg/mL
MIC (Escherichia coli): > 512 µg/mL
MIC (Pseudomonas aeruginosa [4]): > 512 µg/mL

C=C1OC(=O)C(CNC(=O)c2cccc(Br)c2)=C1c1ccc(F)cc1
MIC (Bacillus subtilis): > 512 µg/mL
MIC (Bacillus pumilus): > 512 µg/mL
MIC (Staphylococcus aureus [1]): > 512 µg/mL
MIC (Staphylococcus aureus [2]): > 512 µg/mL
MIC (Pseudomonas aeruginosa [3]): > 512 µg/mL
MIC (Escherichia coli): > 512 µg/mL
MIC (Pseudomonas aeruginosa [4]): > 512 µg/mL

C=C1OC(=O)C(CNC(=O)c2ccc(C)cc2)=C1c1cccc(C(F)(F)F)c1
MIC (Bacillus subtilis): > 512 µg/mL
MIC (Bacillus pumilus): > 512 µg/mL
MIC (Staphylococcus aureus [1]): > 512 µg/mL
MIC (Staphylococcus aureus [2]): > 512 µg/mL
MIC (Pseudomonas aeruginosa [3]): > 512 µg/mL
MIC (Escherichia coli): > 512 µg/mL
MIC (Pseudomonas aeruginosa [4]): > 512 µg/mL

C=C1OC(=O)C(CNC(=O)c2ccccc2Br)=C1c1ccc(F)cc1
MIC (Bacillus subtilis): 16 µg/mL (≈ 39.8 µM)
MIC (Bacillus pumilus): > 512 µg/mL
MIC (Staphylococcus aureus [1]): > 512 µg/mL
MIC (Staphylococcus aureus [2]): 8 µg/mL (≈ 19.9 µM)
MIC (Pseudomonas aeruginosa [3]): > 512 µg/mL
MIC (Escherichia coli): > 512 µg/mL
MIC (Pseudomonas aeruginosa [4]): > 512 µg/mL

C=C1OC(=O)C(CNC(=O)c2ccc(C)cc2)=C1c1ccc(Cl)cc1
MIC (Bacillus subtilis): > 512 µg/mL
MIC (Bacillus pumilus): > 512 µg/mL
MIC (Staphylococcus aureus [1]): > 512 µg/mL
MIC (Staphylococcus aureus [2]): > 512 µg/mL
MIC (Pseudomonas aeruginosa [3]): > 512 µg/mL
MIC (Escherichia coli): > 512 µg/mL
MIC (Pseudomonas aeruginosa [4]): > 512 µg/mL

C=C1OC(=O)C(CNC(=O)c2ccc(C)cc2)=C1c1ccc(Br)cc1
MIC (Bacillus subtilis): > 512 µg/mL
MIC (Bacillus pumilus): > 512 µg/mL
MIC (Staphylococcus aureus [1]): > 512 µg/mL
MIC (Staphylococcus aureus [2]): > 512 µg/mL
MIC (Pseudomonas aeruginosa [3]): > 512 µg/mL
MIC (Escherichia coli): > 512 µg/mL
MIC (Pseudomonas aeruginosa [4]): > 512 µg/mL

C=C1C(c2ccc(F)cc2)=C(CNC(=O)c2ccc(C)cc2)C(=O)N1CCCCC
MIC (Bacillus subtilis): > 512 µg/mL
MIC (Bacillus pumilus): 512 µg/mL (≈ 1260 µM)
MIC (Staphylococcus aureus [1]): > 512 µg/mL
MIC (Staphylococcus aureus [2]): > 512 µg/mL
MIC (Pseudomonas aeruginosa [3]): > 512 µg/mL
MIC (Escherichia coli): > 512 µg/mL
MIC (Pseudomonas aeruginosa [4]): 512 µg/mL (≈ 1260 µM)

C=C1OC(=O)C(CNC(=O)CCCC)=C1c1ccc(F)cc1
MIC (Bacillus subtilis): 32 µg/mL (≈ 105 µM)
MIC (Bacillus pumilus): 16 µg/mL (≈ 52.7 µM)
MIC (Staphylococcus aureus [1]): 4 µg/mL (≈ 13.2 µM)
MIC (Staphylococcus aureus [2]): 32 µg/mL (≈ 105 µM)
MIC (Pseudomonas aeruginosa [3]): > 512 µg/mL
MIC (Escherichia coli): > 512 µg/mL
MIC (Pseudomonas aeruginosa [4]): > 512 µg/mL

C=C1OC(=O)C(CNC(=O)CC)=C1c1ccc(F)cc1
MIC (Bacillus subtilis): 512 µg/mL (≈ 1860 µM)
MIC (Bacillus pumilus): 256 µg/mL (≈ 930 µM)
MIC (Staphylococcus aureus [1]): 128 µg/mL (≈ 465 µM)
MIC (Staphylococcus aureus [2]): 256 µg/mL (≈ 930 µM)
MIC (Pseudomonas aeruginosa [3]): > 512 µg/mL
MIC (Escherichia coli): > 512 µg/mL
MIC (Pseudomonas aeruginosa [4]): 512 µg/mL (≈ 1860 µM)

C=C1OC(=O)C(CNC(=O)c2ccc(C)cc2)=C1c1ccccc1
MIC (Bacillus subtilis): > 512 µg/mL
MIC (Bacillus pumilus): > 512 µg/mL
MIC (Staphylococcus aureus [1]): > 512 µg/mL
MIC (Staphylococcus aureus [2]): > 512 µg/mL
MIC (Pseudomonas aeruginosa [3]): > 512 µg/mL
MIC (Escherichia coli): > 512 µg/mL
MIC (Pseudomonas aeruginosa [4]): > 512 µg/mL

C=C1OC(=O)C(CNC(=O)c2ccccc2C)=C1c1ccc(F)cc1
MIC (Bacillus subtilis): 128 µg/mL (≈ 379 µM)
MIC (Bacillus pumilus): 32 µg/mL (≈ 94.9 µM)
MIC (Staphylococcus aureus [1]): 32 µg/mL (≈ 94.9 µM)
MIC (Staphylococcus aureus [2]): 64 µg/mL (≈ 190 µM)
MIC (Pseudomonas aeruginosa [3]): > 512 µg/mL
MIC (Escherichia coli): > 512 µg/mL
MIC (Pseudomonas aeruginosa [4]): > 512 µg/mL

C=C1OC(=O)C(CNC(=O)c2ccc(C)cc2)=C1c1ccccc1Cl
MIC (Bacillus subtilis): > 512 µg/mL
MIC (Bacillus pumilus): > 512 µg/mL
MIC (Staphylococcus aureus [1]): > 512 µg/mL
MIC (Staphylococcus aureus [2]): > 512 µg/mL
MIC (Pseudomonas aeruginosa [3]): > 512 µg/mL
MIC (Escherichia coli): > 512 µg/mL
MIC (Pseudomonas aeruginosa [4]): > 512 µg/mL

C=C1C(c2ccc(F)cc2)=C(CNC(=O)c2ccc(C)cc2)C(=O)N1CCCC
MIC (Bacillus subtilis): > 512 µg/mL
MIC (Bacillus pumilus): > 512 µg/mL
MIC (Staphylococcus aureus [1]): > 512 µg/mL
MIC (Staphylococcus aureus [2]): > 512 µg/mL
MIC (Pseudomonas aeruginosa [3]): > 512 µg/mL
MIC (Escherichia coli): > 512 µg/mL
MIC (Pseudomonas aeruginosa [4]): > 512 µg/mL

C=C1OC(=O)C(CNC(=O)c2ccccc2Cl)=C1c1ccc(F)cc1
MIC (Bacillus subtilis): > 512 µg/mL
MIC (Bacillus pumilus): > 512 µg/mL
MIC (Staphylococcus aureus [1]): > 512 µg/mL
MIC (Staphylococcus aureus [2]): > 512 µg/mL
MIC (Pseudomonas aeruginosa [3]): > 512 µg/mL
MIC (Escherichia coli): > 512 µg/mL
MIC (Pseudomonas aeruginosa [4]): > 512 µg/mL

C=C1OC(=O)C(CNC(=O)c2ccccc2F)=C1c1ccc(F)cc1
MIC (Bacillus subtilis): > 512 µg/mL
MIC (Bacillus pumilus): > 512 µg/mL
MIC (Staphylococcus aureus [1]): > 512 µg/mL
MIC (Staphylococcus aureus [2]): 128 µg/mL (≈ 375 µM)
MIC (Pseudomonas aeruginosa [3]): > 512 µg/mL
MIC (Escherichia coli): > 512 µg/mL
MIC (Pseudomonas aeruginosa [4]): > 512 µg/mL

C=C1OC(=O)C(CNC(=O)c2ccccc2OC)=C1c1ccc(F)cc1
MIC (Bacillus subtilis): > 512 µg/mL
MIC (Bacillus pumilus): > 512 µg/mL
MIC (Staphylococcus aureus [1]): > 512 µg/mL
MIC (Staphylococcus aureus [2]): > 512 µg/mL
MIC (Pseudomonas aeruginosa [3]): > 512 µg/mL
MIC (Escherichia coli): > 512 µg/mL
MIC (Pseudomonas aeruginosa [4]): > 512 µg/mL

C=C1OC(=O)C(CNC(=O)CCCCCCCCC)=C1c1ccc(F)cc1
MIC (Bacillus subtilis): > 512 µg/mL
MIC (Bacillus pumilus): > 512 µg/mL
MIC (Staphylococcus aureus [1]): > 512 µg/mL
MIC (Staphylococcus aureus [2]): 512 µg/mL (≈ 1370 µM)
MIC (Pseudomonas aeruginosa [3]): > 512 µg/mL
MIC (Escherichia coli): > 512 µg/mL
MIC (Pseudomonas aeruginosa [4]): > 512 µg/mL
